Consider 6 molecules from PMC8409457, “An evolution-inspired strategy to design disulfide-rich peptides tolerant to extensive sequence manipulation” (Chemical Science, 2021).

Where a SMILES comes first, the peptide text is derived from it. Bridges are numbered along the chain shown (N, C = ends).

In one data set the target is MDM2 (Homo sapiens, UniProt Q00987). The experiment in a line: Fluorescence polarization competition assay, binding to MDM2. As for the experimental part:
1.6 Fluorescence polarization (FP) assays
Infinite® 200 PRO Microplate Reader. […]
data with the single-site binding model. […]
described above, and fluorescence anisotropies were recorded. The Ki value of the binding between […]
been described in our previous reports.1,6
(§1) 1.7 Surface plasmon resonance (SPR) assays
(§2) SPR assays were performed using a Biacore T200. Target proteins (Sumo-Bcl-2 and […]
(In general: Fluorescence polarisation rises when a labelled molecule tumbles more slowly, as on binding a larger partner.)

The next data set concerns the target T1, Bcl-2 (Homo sapiens, UniProt P10415).
T1 construct: made in house; host or cells: E. coli
The experiment in a line: Surface plasmon resonance (SPR), binding to immobilized Sumo-Bcl-2. The conditions noted are these: for Binding affinity to Bcl-2 (SPR), in words: SPR sensorgrams, peptide 160–2560 nM. On the procedure: as §1, §2
(§3) to reach a target response of 1000 RU. Flow cell Fc3 that was not immobilized with proteins was used as the reference channel. […]
A general note: Surface plasmon resonance follows binding to a sensor surface in real time, without labels.

The target of another data set is T2, streptavidin (Streptomyces avidinii, UniProt P22629).
T2 construct: purchased Biosynthesis Biotechnology (Beijing, China)
T2 sequence (P22629 25-183): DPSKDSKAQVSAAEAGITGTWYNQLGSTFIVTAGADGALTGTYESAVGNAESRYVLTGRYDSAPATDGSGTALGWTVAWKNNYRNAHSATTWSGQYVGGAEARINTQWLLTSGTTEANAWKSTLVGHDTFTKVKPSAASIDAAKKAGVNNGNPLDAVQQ
The data set can be described thus: Surface plasmon resonance (SPR), binding to immobilized streptavidin. The conditions noted are these: SPR sensorgrams, peptide 20–320 nM. As for the experimental part: as §1, §2, §3

In a further data set the test system is chymotrypsin. The data set can be described thus: Proteolytic stability of peptides toward chymotrypsin. It counts as in vitro ADME. The conditions noted are these: 100 μM peptide, phosphate buffer 100 mM pH 7.4, 37 °C, HPLC, 0–180 min. On the procedure:
1.9 Proteolytic stability of peptides
100 μM 15-Ala, 16-Ala, oxidized 15, and oxidized 16 were respectively treated with phosphate buffer (pH = 7.4, 100 mM) containing chymotrypsin at 37 °C . The chymotrypsin concentration used for the digestion of 15 - Ala and oxidized 15 is 0.3 μ g/mL . The chymotrypsin concentration used for the digestion of 16 - Ala and oxidized 16 is 5.0 μ g/mL . At pred e fined time s , 50 μ L aliqu ots were taken with a pipette , quenched with 70 μ L 10% HPO 3 , and analyzed by HPLC. […]

Data set [1] is described as follows: Thermal denaturation monitored using circular dichroism. Type of data set: physicochemical. The conditions noted are these: CD, 50 μM peptide in water, 25–95 °C, ellipticity at 220 nm. On the procedure: Circular dichroism (CD) spectra were measured using a 1.0 mm path length cuvette at room temperature (25 ℃). All measured peptides were dissolved in water to reach a concentration of 50
μM. The baseline signal (pure aqueous solution) were subtracted from each spectrum. CD spectra were recorded in a wavelength range of 190 ‒ 260 nm with a bandwidth of 2.0 nm, a date pitch of 1.0 nm, a response time of 8. 0 s, and a scanning speed of 50 nm/min. The thermal denaturation CD spectra were recorded in a temperature range of 25 ‒ 95 ℃ with a heating rate of 10 ℃/min. For temperature melts, the change of ellipticity at 220 nm was monitored as temperature increased f rom 25 to 95 °C in an increment of 10 °C. Other experimental conditions were consistent with those of […]

T1 sequence (P10415 whole entry, species assumed): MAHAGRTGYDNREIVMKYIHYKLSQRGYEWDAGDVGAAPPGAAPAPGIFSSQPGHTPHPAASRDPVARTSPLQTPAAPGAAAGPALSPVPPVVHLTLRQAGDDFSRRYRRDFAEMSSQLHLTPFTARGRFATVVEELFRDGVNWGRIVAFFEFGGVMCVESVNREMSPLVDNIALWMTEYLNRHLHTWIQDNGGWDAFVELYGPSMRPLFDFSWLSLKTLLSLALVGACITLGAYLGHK
MDM2, sequence (Q00987 whole entry, species assumed): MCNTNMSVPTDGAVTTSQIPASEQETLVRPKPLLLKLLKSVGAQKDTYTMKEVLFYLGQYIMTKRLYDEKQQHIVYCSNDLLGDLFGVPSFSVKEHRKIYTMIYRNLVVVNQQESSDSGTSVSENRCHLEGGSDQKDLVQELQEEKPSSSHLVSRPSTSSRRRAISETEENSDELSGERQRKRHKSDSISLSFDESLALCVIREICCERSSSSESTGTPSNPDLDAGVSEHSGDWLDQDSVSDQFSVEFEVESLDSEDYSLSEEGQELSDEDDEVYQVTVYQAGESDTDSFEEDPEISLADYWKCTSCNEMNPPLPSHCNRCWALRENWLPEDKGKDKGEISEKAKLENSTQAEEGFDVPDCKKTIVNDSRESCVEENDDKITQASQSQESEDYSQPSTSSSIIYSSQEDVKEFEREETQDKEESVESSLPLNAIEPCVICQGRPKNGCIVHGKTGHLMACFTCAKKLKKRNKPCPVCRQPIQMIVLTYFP

Take `CSCC[C@@H]1NC(=O)[C@@H]2CCCN2C(=O)[C@@H]2CSSC[C@H](NC(=O)[C@@H]3CCCN3C(=O)[C@@H](NC(=O)[C@H](Cc3ccccc3)NC(=O)[C@@H]3CSSC[C@H](NC(=O)CNC(C)=O)C(=O)NCC(=O)N[C@@H](CO)C(=O)N[C@@H](CC(=O)O)C(=O)N[C@@H](CCC(=O)O)C(=O)N[C@@H](C)C(=O)N3)CSSC[C@@H](C(N)=O)NC(=O)[C@H](Cc3c[nH]cn3)NC(=O)[C@H](CCC(N)=O)NC(=O)[C@H](C)NC1=O)C(=O)N[C@@H](CO)C(=O)N[C@@H](Cc1c[nH]cn1)C(=O)N1CCC[C@H]1C(=O)N[C@@H](CCC(=O)O)C(=O)N[C@@H](CC(N)=O)C(=O)N2` [compound 17] (Ac-GCGSDEACFCPCSHPENCPMAQHC-NH2; disulfide 2-8, 10-24, 12-18): at MDM2, the “Binding affinity to MDM2 (FP competition), in words” value is recorded as “negligible binding affinity”. Moreover, at Bcl-2, the “Binding affinity to Bcl-2 (SPR), in words” value is on record as “negligible binding affinity”.
For `CC[C@H](C)[C@@H]1NC(=O)[C@H](CC(N)=O)NC(=O)[C@H](CCC(=O)O)NC(=O)[C@@H]2CCCN2C(=O)[C@@H]2CSSC[C@H](NC(=O)[C@@H]3CCCN3C(=O)[C@@H]3CSSC[C@@H](C(N)=O)NC(=O)[C@H](CSSC[C@H](NC(=O)CNC(C)=O)C(=O)N[C@@H](CCSC)C(=O)N[C@@H]([C@@H](C)CC)C(=O)N[C@@H](CC(C)C)C(=O)N[C@@H](CC(C)C)C(=O)N[C@@H](CC(=O)O)C(=O)N[C@@H]([C@@H](C)O)C(=O)N[C@@H](CC(=O)O)C(=O)N[C@@H]([C@@H](C)CC)C(=O)N[C@@H](Cc4c[nH]c5ccccc45)C(=O)N3)NC1=O)C(=O)N[C@@H](CO)C(=O)N[C@@H](Cc1c[nH]cn1)C(=O)N1CCC[C@H]1C(=O)N[C@@H](Cc1ccc(O)cc1)C(=O)N[C@@H](C)C(=O)N2` [Oxidized 16], the “Binding affinity to MDM2 (FP competition), in words” value on MDM2 is recorded as “negligible binding affinity”. Moreover, the “kd, binding kinetics with Bcl-2 (SPR)” value on Bcl-2 (Biacore T200, 1:1 binding model, peptide 0.16–2.56 μM) came to 0.0498 s⁻¹. Further, the kon on Bcl-2 (read-out: ka, binding kinetics with Bcl-2 (SPR)) is 126000 M⁻¹ s⁻¹. Besides, the “Binding affinity to streptavidin (SPR), in words” value (from here on “Binding affinity to streptavidin”) on streptavidin is “negligible binding affinity”. In addition, in the data set on chymotrypsin (chymotrypsin 5.0 μg/mL, versus 16-Ala), the “Stability toward proteolysis by chymotrypsin compared to linear analog” value is recorded as “significantly more stable”. Further, the “Stability to heat treatment (aggregation)” value in data set [1] is listed as “no aggregation was observed”.
A word on the Ki: it is the dissociation constant of the complex between target and ligand, obtained from inhibition or displacement. The low end stands for higher affinity, the high end for lower affinity. `CC[C@H](C)[C@@H]1NC(=O)[C@H](Cc2c[nH]c3ccccc23)NC(=O)[C@@H]2CCCN2C(=O)[C@@H]2CSSC[C@H](NC(=O)[C@@H]3CCCN3C(=O)[C@@H]3CSSC[C@@H](C(N)=O)NC(=O)[C@H](CSSC[C@H](NC(C)=O)C(=O)NCC(=O)N[C@@H](CO)C(=O)NCC(=O)N[C@@H](CO)C(=O)NCC(=O)N[C@@H](CO)C(=O)NCC(=O)N[C@@H](CO)C(=O)NCC(=O)N3)NC(=O)[C@H](CCCNC(=N)N)NC1=O)C(=O)N[C@@H]([C@@H](C)CC)C(=O)N[C@@H](Cc1c[nH]c3ccccc13)C(=O)N1CCC[C@H]1C(=O)N[C@@H](CCC(=O)O)C(=O)N[C@@H](CC(C)C)C(=O)N2` [compound 8] (Ac-CGSGSGSGSGCPCIWPELCPWIRCC-NH2; disulfide 1-24, 11-25, 13-19) had a Ki on MDM2 (PBS pH 7.4, room temperature, peptides HPLC-purified >95%) of 164 nM.
For `CC[C@H](C)[C@@H]1NC(=O)[C@@H]2CSSC[C@H](NC(=O)[C@H](CC(C)C)NC(=O)[C@H](CCC(=O)O)NC(=O)[C@@H]3CCCN3C(=O)[C@H](Cc3ccccc3)NC1=O)C(=O)N1CCC[C@H]1C(=O)N[C@@H](Cc1c[nH]c3ccccc13)C(=O)N[C@@H]([C@@H](C)CC)C(=O)N[C@@H](C(C)C)C(=O)N[C@H]1CSSC[C@H](NC(=O)CNC(C)=O)C(=O)N[C@@H](CCC(=O)O)C(=O)N[C@@H](CCCCN)C(=O)N[C@@H](C)C(=O)N[C@@H]([C@@H](C)O)C(=O)N[C@@H](CCC(=O)O)C(=O)N[C@@H](CO)C(=O)N[C@@H](CCC(=O)O)C(=O)N[C@@H](CO)C(=O)N3CCC[C@H]3C(=O)N[C@@H](CSSC[C@@H](C(N)=O)NC1=O)C(=O)N1CCC[C@H]1C(=O)N2` [Oxidized 15] (Ac-GCEKATESESPCPCIFPELCPWIVCC-NH2; disulfide 2-25, 12-26, 14-20), the “Binding affinity to Bcl-2 (SPR), in words” value at Bcl-2 is listed as “no binding affinity”. For the same molecule, the “Binding affinity to streptavidin” value on streptavidin is “no binding affinity”. Moreover, in the data set with chymotrypsin (chymotrypsin 0.3 μg/mL, versus 15-Ala), the “Stability toward proteolysis by chymotrypsin compared to linear analog” value is “significantly more stable”. Besides, the “Stability to heat treatment (aggregation)” value in data set [1] is given as “no aggregation was observed”.
As to “Ac-CGSGSGSGCGCPCIWPELCPWIRSC-NH2 (also: bicyclic or more (positions not given here)) [compound 11, original peptide template of the 11-X14 library]”, the “Binding affinity to streptavidin” value on streptavidin is recorded as “no binding affinity”.
Consider “Ac-GAMILLDTDIWAPASHPYAAPENIAA-NH2 [16-Ala, linear counterpart (Cys-to-Ala mutant) of 16]”, for which, at Bcl-2, the “Binding affinity to Bcl-2 (SPR), in words” value is reported as “negligible affinity”.
